According to paper PMC4608580, “Synthesis and Evaluation of Biological Activity of Antimicrobial – Pro-Proliferative Peptide Conjugates” (PLoS ONE, 2015):
≈ marks a conversion by molar mass, not a printed value. Residues, ends and D or L forms follow the SMILES beside them.

Columns and labels:
B. cereus = format: cell-based; conditions: 24 h
Protocol: (§1) Luria-Bertani broth (LB) and Sabouraud Dextrose broth (SB) (Biocorp, Poland) were used for cultivation of bacteria and fungi strains, respectively. Antimicrobial activity of peptides was analyzed through determination of MIC (minimal inhibitory concentration) parameter according to the standard microdilution technique performed on 96-well plates. Mueller-Hinton broth (MHB) was used as the working medium for all bacterial strains, while in case of fungi it was additionally supplemented with 2% glucose.
(§2) Briefly, inoculum was prepared from freshly grown cultures of microorganisms being at their exponential phase of growth. Each well of 96-well plates containing 100 μL of serially diluted peptides in PBS (phosphate buffer saline) at concentration ranging from 2 to 250 μg/mL were inoculated with 100 μL of approximately 10^5 CFU/mL of bacterial suspension or about 2.5 x 10^3 CFU/mL of fungi suspended in a double concentrated Mueller-Hinton broth (supplemented with 2% glucose for Candida spps.). Then plates were incubated overnight at 37°C and absorbance was read at 590 nm after 24 h. Cultures without peptide were treated as positive control, while uninoculated Mueller-Hinton broth was defined as negative control. All measurements were run at least in triplicate.
(§3) All peptides were screened against the wide range of microorganisms, including Gram-negative, Gram-positive bacteria and fungi from Candida species (Table 2). Broth microdilution method for MIC determination was used as a standard procedure. All assays were performed on liquid Mueller-Hinton broth, which was additionally supplemented with 2% glucose when fungicidal activity towards Candida spps. was analyzed.

[1] = test system: Escherichia coli (PCM 2057); format: cell-based; conditions: PCM 2057, 24 h
Excerpt: (§4) Escherichia coli (PCM 2057), Staphylococcus aureus (PCM 2054), Staphylococcus epidermidis (PCM 2118), Pseudomonas aeruginosa (PCM 499) were obtained from Polish Collection of Microorganisms. Fungi strains Candida albicans (CCM 8186), Candida glabrata (CCM 8270), Candida parapsilosis (CCM 8260), Candida krusei (CCM 8271), Candida tropicalis (CCM 8264) were acquired from Czech Collection of Microorganisms.
as §1, §2, §3

[2] = test system: Pseudomonas aeruginosa (PCM 499); format: cell-based; conditions: PCM 499, 24 h
Excerpt: as §4, §1, §2, §3

[3] = test system: Staphylococcus aureus (PCM 2054); format: cell-based; conditions: PCM 2054, 24 h
Excerpt: as §4, §1, §2, §3

[4] = test system: Staphylococcus epidermidis (PCM 2118); format: cell-based; conditions: PCM 2118, 24 h
Excerpt: as §4, §1, §2, §3

[5] = test system: immortalized human HaCaT keratinocytes; experiment: Cell proliferation assay (MTT); format: cell-based; conditions: 72 h, serum-free DMEM; for Effect on HaCaT cell viability/proliferation (MTT), in words: whole range 1–50 μg/mL, vs. control without peptide, triplicate
Protocol: (§5) In our study two kind of cells were used: immortalized human HaCaT keratinocytes (DKFZ Heidelberg, Germany) and primary dermal fibroblasts obtained from 3 healthy donors. Both types of the used cell lines were grown in Dulbecco's modified Eagle's medium (DMEM) (Sigma–Aldrich, Germany), that contained […] of glucose, […] of L-glutamine, sodium pyruvate and sodium bicarbonate. Additionally, medium was supplemented with 10% of FCS (fetal calf serum, Sigma-Aldrich, Germany), 100 U/mL of penicillin and 100 μg/mL streptomycin (Sigma-Aldrich, Germany). The cells were grown in culture dishes (BD, USA) under standard conditions in a humidified atmosphere with 5% CO2 at 37°C and medium was changed every 2 days.
(§6) The fibroblasts and keratinocytes were seeded at density of 4500 and 6000 cells per well, respectively, into 96-well plates suspended in a medium supplemented with 10% of FCS. After 24 h the media were exchanged with serum- and antibiotic- free DMEM and tested peptides dissolved in PBS were added yielding final concentration ranging from 1 to 50 μg/mL. Cells were incubated for the next 24 hours, when the medium was exchanged again and fresh portion of peptides (used at the same concentrations as previously) was added. Incubation was continued for the next 48 hours (the overall time of cell exposition to peptide was 72 h). At the end of the experiment cells were treated with 20 μL of MTT (5 mg/mL in PBS). After 3 h at 37°C under 5% CO2 medium was discarded and replaced by 6mM HCl in isopropanol. After 15 min when the purple crystals of formazan were fully solubilized, absorbance was read at 570 nm with a plate reader. The optical density reflects the level of cell viability as MTT is converted in purple formazan product only in the presence of viable mitochondria of the living cells.
Fig 1 Pro-proliferative activity of the tested peptides towards human keratinocytes (A) and fibroblasts (B). Cells were incubated for 72 hours in serum-free DMEM medium in the presence of peptides applied at concentrations of 1,10, 25 and 50 μg/mL, respectively. The data represents results of MTT assay expressed as the percentage of the cell viability in comparison to their control sample (cells incubated in serum-free DMEM without tested peptides), additional positive control corresponds to the cells incubated in the presence of 10% FCS. All experiments were performed independently in triplicate. *P < 0.05, **P < 0.01, ***P < 0.001 vs. control.
In order to evaluate a long-term effect of peptides, experiments were carried out for 72 hours. Before addition of the tested compounds, the cell medium was exchanged for the fresh one not containing any serum or antibiotic.

[6] = test system: human primary dermal fibroblasts; experiment: Cell proliferation assay (MTT); format: cell-based; conditions: 72 h, serum-free DMEM
Protocol: Biopsies of healthy human skin were obtained aseptically from three donors (47–69 years old) undergoing circumcision after obtaining their written informed consent. All the procedures were approved by the Ethics Committee of Medical University of Gdansk (NKEBN/483/2011. Issued: 2011-12-19). The samples were washed several times with sterile PBS (Sigma-Aldrich, Germany) containing antibiotic (200 U/mL penicillin and 200 μg/mL streptomycin), after which, the subcutaneous tissue was cut off with a sharp blade. The resulting sheets were cut into small fragments, washed two times with sterile PBS and treated with 6 U/mL dispase II (BD, USA) overnight at 4°C to separate epidermis and dermis. The dermis was then digested with 1.0 mg/mL collagenase type I (from Clostridium histolyticum Sigma-Aldrich, Germany) for 2 hours at 37°C to isolate fibroblasts. Cells were used between the 2nd and 4th passage in all experiments.
as §5
as §6, with “At the end of the experiment cells were treated with 20 μL of MTT (5 mg/mL in PBS). After 3 h at 37°C under 5% CO2 medium was discarded and replaced by 6mM HCl in isopropanol.” left out, “The optical density reflects the level of cell viability as MTT is converted in purple formazan product only in the presence of viable mitochondria of the living cells.” left out
Fig 1 Pro-proliferative activity of the tested peptides towards human keratinocytes (A) and fibroblasts (B). […] The data represents results of MTT assay expressed as the percentage of the cell viability in comparison to their control sample (cells incubated in serum-free DMEM without tested peptides), additional positive control corresponds to the cells incubated in the presence of 10% FCS. […]

[7] = Circular dichroism, alpha-helical content; format: physicochemical; conditions: CD, mean residue ellipticity at 222 nm (Eq 1), peptide 0.4 mg/ml in 30 mM SDS, room temperature
Protocol: Circullar dichroism spectra of analyzed compounds were recorded on a Jasco J-815 spectropolarimeter using a quartz cell of 1 mm path length between 195–260 nm at room temperature. Peptides at concentration of 0.4 mg/ml were dissolved in water or 30 mM SDS solution. SDS micelle system was used as the simplified model of negatively charged lipid membrane. On the basis of the obtained results the alpha-helical content was determined from the mean residue ellipticities at 222 nm according to Eq 1: %Helix=([θ]obs/([θ]helixx(1−2.57/l))x100, (1) where [θ] obs is the experimentally observed mean-residue ellipticity at 222 nm, [θ]helix is the theoretical ellipticity of peptide of infinite length with a 100% helix population, taken as -39 500 deg·cm^2/dmol, and l is the number of peptide bonds.
Circular dichroism method was applied to obtain a basic information about the secondary structure of the synthesized compounds (with the exception of CAR, CAR3, DAL, CTEN2) in two chemical environments, water and 30 mM SDS. As expected, all the tested compounds in water adopted a random-coil structure, while in the presence of 30 mM SDS most of them formed α-helices with characteristic negative minima around 208 and 220 nm. […] The examples of CD spectra for selected peptides could be seen in supporting information (Figure A in S1 File). On the basis of the experimentally obtained values of the mean residue ellipticities of peptides at 222 nm their alpha-helical content was calculated according to the Eq 1 (Table 1).

HaCaT keratinocytes = experiment: Cell migration assay (in vitro scratch test); format: cell-based, human; conditions: 25 μg/mL, 24 h, serum-free DMEM, Mitomycin C 5 μg/mL, vs. control without peptide, three independent experiments
Protocol: Fibroblasts and keratinocytes were seeded (5x10^5 cells/well) in 6-well plates. When desired monolayer confluence was reached, cells were starved for 24 hours in serum-free DMEM. The monolayer was scratched then with 200μL-pipette tip. The floating cells and cell debris were removed by double washing in PBS, further replaced with a fresh serum-free medium. Wounded monolayers were incubated for the next 24 h in the presence of tested peptides used at concentration of 25 μg/mL and 5 μg/mL of Mitomycin C (Sigma Aldrich) to prevent proliferation. At the end of the experiment medium was removed and the cells were fixed with 3.7% PFA for 5 min, stained for the next 30 min with 0.05% crystal violet solution, washed several times with distilled water and the plates were left inverted for a couple of minutes to drain. The wounded areas were then photographed by means of Zeiss Observer D1 microscope equipped with camera AxioCam and analyzed with AxioVision software (Carl Zeiss, Germany). Migration activity of the cells treated with the tested peptides were expressed as the percentage of the wounded area with respect to the control probe (cell cultures without any of the peptide), assumed as 100%.
An in vitro scratch test was performed to investigate the effect of the analyzed compounds on keratinocytes and fibroblasts migration. Evaluation was based on the efficiency of the invasion of the monolayer cells to the prewounded area within 24 h after stimulation with the appropriate compound added at concetration of 25μg/mL.
Fig 2 Effect of the peptides on HaCaT keratinocytes and fibroblasts cell migration in the in vitro scratch test. HaCaT cells and fibroblasts were grown in 6-well plates until the 100% confluence was reached, then cells were starved for the next 12 hours in DMEM without 10% FCS and scratched once vertically with a 200μL pipette tip. After being washed two times with sterile PBS, a fresh portion of DMEM medium was added and cells were treated with the tested peptides applied at their optimal doses (25 μg/mL). Migration was analyzed after 24 hours by means of Zeiss Observer D1 microscope, wounding areas were analyzed with AxioVision software and expressed as the percentage of the wound width in comparison to the control sample (cells incubated in DMEM without FCS). Control+ FCS corresponds to the sample with cells incubated in the medium containing 10% FCS and was treated as the additional positive control. Data represent the mean ± SD of three independent experiments. *P < 0.05, **P < 0.01, ***P < 0.001 vs. control.

| Compound | MIC B. cereus (B. cereus) [µg/mL] | MIC E.coli [1] [µg/mL] | MIC P. aeruginosa [2] [µg/mL] | MIC S.aureus [3] [µg/mL] | MIC S. epidermidis [4] [µg/mL] | Effect on HaCaT proliferation (MTT), in words ([5]; peptide at 1–25 μg/mL) | Effect on fibroblast cell count (MTT), in words ([6]; dose-response relationship, peptide at 50 μg/mL) | α-helicity [7] [%] | Effect on HaCaT cell viability/proliferation (MTT), in words [5] | Effect on fibroblast cell count (MTT), in words ([6]; peptide at 1–25 μg/mL) | Effect on keratinocyte migration (scratch test), in words (HaCaT keratinocytes) |
| --- | --- | --- | --- | --- | --- | --- | --- | --- | --- | --- | --- |
| CC(C)C[C@H](NC(=O)CNC(=O)[C@@H](N)CCC(=O)O)C(=O)N[C@@H](CCC(=O)O)C(=O)N1CCC[C@H]1C(=O)NCC(=O)NCCOCCOCC(=O)N[C@@H](CCCCN)C(=O)N[C@@H](CCCCN)C(=O)N[C@H](C(=O)N[C@H](C(=O)N[C@@H](Cc1ccccc1)C(=O)N[C@@H](Cc1c[nH]c2ccccc12)C(=O)N[C@H](C(=O)N[C@@H](CCCCN)C(=O)N[C@@H](Cc1ccccc1)C(=O)N[C@@H](CCCCN)C(N)=O)C(C)C)C(C)C)C(C)C [CTEN2-PEG-KSLW] (HELM PEPTIDE1{E.G.L.E.P.G.[O=C(COCCOCCN[*:1])[*:2]].K.K.V.V.F.W.V.K.F.K.[am]}$$$$V2.0; N-terminus assumed) | >125 | >125 | >125 | >125 | 7.8 (≈ 3.83 µM) | noticeable pro-proliferatory activity | highest cell count | 27 | – | – | – |
| EGLEPG [CTEN2] | – | – | – | – | – | – | – | – | non-toxic | Increased cell count | – |
| carnosine [reference compound] | – | – | – | – | – | – | – | – | non-toxic | – | best results |
